| logP | SMILES |
| --- | --- |
| 4.2 | COc1ccc(-c2cc3ccccn3c2)cc1 |
| 5.2 | Clc1ccc(-c2cc3ccccn3c2)cc1 |
| 4.96 | Cc1ccc(-c2cc3ccccn3c2)cc1 |
| 5.43 | Brc1ccc(-c2cc3ccccn3c2)cc1 |

More lines, now with the values behind:

| SMILES | logP |
| --- | --- |
| COc1cccc(-c2cc3ccccn3c2)c1 | 4.14 |
| c1ccc(-c2cc3ccccn3c2)cc1 | 4.29 |
| Cc1cccc(-c2ccc3cccn3c2)c1 | 4.87 |
| Clc1cccc(-c2cc3ccccn3c2)c1 | 5.14 |
| c1ccn2cccc2c1 | 2.49 |
| Brc1cccc(-c2cc3ccccn3c2)c1 | 5.31 |

— the SangsterLogP compilation
